The values that follow are results of earlier work, collected in US9421238B2 (priority 2013, dated 2016).

The conditions of this data set: rat, CO-60 in liver.

Molecules are shown by their SMILES. Where two headings read alike, the source gives them in different places.

Turning to `N[C@@H](CCC(=O)N[C@@H](CS)C(=O)NCC(=O)O)C(=O)O` [Plain glutathione, glutathione], the removal of toxin (intravenous administration) was 64%. Further, where the note is “oral administration”, the removal of toxin is recorded as 0% and the toxin remained/remaining is recorded as 100%.
